According to patent publication US9896512B2, “Antitumor peptide derived from a complementarity determining region of a humanized monoclonal antibody to NAP12B transporter” (Recepta Biopharma S.A., priority 2010, dated 2018):
Entries after “also recorded” stand apart in the source; their conditions may differ. No end group written: not given here.

Columns and labels:
[1] = tested on: melanoma B16F10-Nex2 cells; assay: Alanine scanning series cell adhesion assay (MTT after trypsin-EDTA); type: cell-based, murine; details: 1 mM peptide, 24 hours
Protocol: The peptide RB10 (SEQ ID NO: 9) was engineered to replace each amino acid by alanine using Ala-scan methodology, and thus help evaluate the role of each amino acid on biological effect, specifically on the hyper-adherence observed with 1 mM peptide.
For this purpose, viable melanoma B16F10-Nex2 cells (1×10^4)/well were distributed on a 96-well culture plate and incubated for 4 hours. Fresh media containing 1 mM of the alanine-scanning series for RB10 was added and incubated for 24 hours. Treated cells were detached with 30 μl/well of trypsin-EDTA for five minutes at 37° C. and gently washed with PBS. Cells were incubated for 4 hours with 0.5 mg/mL of MTT [3-(4,5-Dimethylthiazol-2-yl)-2,5-diphenyltetrazolium bromide] in fresh media and the formazan crystals were solubilized adding 1 volume of a 10% SDS solution overnight. Intensity was measured using a plate reader at 570 nm. […] The 100% value for each peptide represented the treated cells that had not been trypsinized.

[2] = tested on: human cervix cancer HeLa cells; assay: Cell migration, wound healing assay; type: cell-based; details: peptide 500 μM, 24 hours
Protocol: (§1) For the migration studies, 5×10^5 or 10^6 cells were distributed on 6-well plates and let them to adhere for 2 hours at 37° C./5% CO2. The culture medium was changed and the peptide was added at 500 μM overnight. The cell monolayer was “wounded” with a P1000 tip and incubated for 24 hours. Images of untreated cells (control) and peptide treated cells were captured with a JENOPTIK camera. Cell numbers (nuclei) were determined using the Pixcavator software version 5.0.

[3] = tested on: melanoma; assay: Primary tumor development in a subcutaneous model; type: in vivo; details: susceptible mice
[4] = tested on: B16F10-Nex2 cells; assay: Tumor cell invasion through Matrigel (Transwell); type: cell-based, murine; design: inhibition of cell invasion: dose or concentration left out as unconfirmed; details: 24 hours
Protocol: […] As a chemoattractant, 10% FCS in RPMI was used in the transwell lower chamber. After 24 hours at 37° C. in humidified atmosphere with 5% CO2, non-invasive cells were excluded with a swab, and cells that crossed the membrane were fixed with methanol and stained with Giemsa. Cells were counted in each transwell membrane, and the numbers of invasive cells are expressed as percentages.

[5] = tested on: 3T3 murine fibroblasts; assay: Cell migration, wound healing assay; type: cell-based; details: normal non-tumorigenic cells
Protocol: as §1

[6] = tested on: FibroRP primary human fibroblasts; assay: Cell migration, wound healing assay; type: cell-based; details: normal non-tumorigenic cells
Protocol: as §1

[7] = tested on: T75 primary human fibroblasts; assay: Cell migration, wound healing assay; type: cell-based; details: normal non-tumorigenic cells
Protocol: as §1

[8] = tested on: human breast cancer SKBr-3 cells; assay: Cell migration, wound healing assay; type: cell-based; details: peptide 500 μM, 24 hours
Protocol: as §1

[9] = tested on: human colon cancer HCT cells; assay: Cell migration, wound healing assay; type: cell-based; details: peptide 500 μM, 24 hours
Protocol: as §1

[10] = tested on: human melanoma A2058 cells; assay: Cell migration, wound healing assay; type: cell-based; details: peptide 500 μM, 24 hours
Protocol: as §1

[11] = tested on: human ovary cancer OVCAR-3 cells; assay: Cell migration, wound healing assay; type: cell-based; details: peptide 500 μM, 24 hours
Protocol: as §1

| Molecule | trypsin/EDTA-resistant cell adherence [1] | inhibition of cell migration [2] | protection against development of a primary tumor [3] | inhibition of cell invasion [4] | inhibition of cell invasion through Matrigel, dose dependence ([4]; 10% FCS chemoattractant) | inhibition of cell migration [5] | inhibition of cell migration [6] | inhibition of cell migration [7] | inhibition of cell migration [8] | inhibition of cell migration [9] | inhibition of cell migration [10] | inhibition of cell migration [11] |
| --- | --- | --- | --- | --- | --- | --- | --- | --- | --- | --- | --- | --- |
| CARGETARATFAYWGQG-NH2 [RB10, CARGETARATFAYWGQG-NH2] | high trypsin/EDTA-resistant cell adherence | complete or almost complete inhibition | not against the development of a primary tumor | – | – | – | – | – | – | – | – | – |
| C[C@@H]1NC(=O)[C@H](CCCNC(=N)N)NC(=O)[C@H](C)NC(=O)[C@H]([C@@H](C)O)NC(=O)[C@H](CCC(=O)O)NC(=O)CNC(=O)[C@H](CCCNC(=N)N)NC(=O)[C@H](C)NC(=O)[C@@H](N)CSSC[C@@H](C(N)=O)NC(=O)CNC(=O)[C@H](CCC(N)=O)NC(=O)CNC(=O)[C@H](Cc2c[nH]c3ccccc23)NC(=O)[C@H](Cc2ccc(O)cc2)NC(=O)[C@H](C)NC(=O)[C@H](Cc2ccccc2)NC(=O)[C@H]([C@@H](C)O)NC1=O [RB9, CARGETARATFAYWGQGC-NH2] | – | – | – | 60% | dose-dependent inhibition | did not affect; also recorded: non-inhibition | did not affect; also recorded: non-inhibition | did not affect; also recorded: non-inhibition | completely inhibited; also recorded: complete inhibition | completely inhibited; also recorded: partial inhibition | completely inhibited; also recorded: complete inhibition | half inhibited; also recorded: partial inhibition |
